Data from patent publication US20150265682A1, “THERAPEUTIC METHODS AND COMPOSITIONS FOR TREATING DIABETES” (Orient Europharma Co., Ltd., priority 2014, published 2015).

Key:
[1] = tested on: IL-6-treated C2C12 cells; experiment: Glycogen content assay in IL-6-treated (insulin resistant) C2C12 cells; type: cell-based; conditions: 30 minutes; for fold increase of glycogen content: IL-6-treated C2C12
Method: The C2C12 skeletal muscle cells were cultured in Dulbecco's modified Eagle's medium (DMEM; Gibco/Invitrogen, Carlsbad, Calif.), and the human hepatocellular carcinoma cell line, Hep3B, was cultured in Roswell Park Memorial Institute medium 1640 (RPMI 1640 medium; Gibco/Invitrogen, Carlsbad, Calif.). Cells were cultured at 37° C. in the humidified incubator supplied with 5% CO2. Culture mediums were supplemented with 4.5 mgmL^−1 glucose, penicillin 100 IUmL^−1, streptomycin 100 μgmL^−1 and 10% fetal bovine serum (Gibco/Invitrogen, Carlsbad, Calif.). Only C2C12 cells were then switched to 2% horse serum for 3 days after reaching the 70% confluence. Myotubes formation was achieved after 4 days of incubation, and the cells were used for subsequent experiments. Culture mediums were replaced by serum free DMEM or RPMI for 24 h before experiments (see e.g., procedure described in Sultan et al., 2006).
C2C12 and Hep3B cells were treated with 1 nM insulin, 100 μM metformin, and the assigned concentration of borapetoside A for 30 minutes. To develop the insulin resistance state of cells, C2C12 cells were incubated with IL-6 at 20 ngmL^−1 for 1 hour. Later, the cells were treated with 1 nM insulin, 100 μM metformin, and the assigned concentration of borapetoside A for 30 minutes. After the assigned treatment, cells were washed twice with phosphate buffered saline (PBS). Glycogen content was measured as previously described, with some modifications (see e.g., Savage et al., 2008). The protein concentrations of the cell lysates were determined by using Pierce BCA Protein Assay Kit (Thermo-Scientific, Rockford, Ill.). The glycogen content of each sample was normalized by total protein.

[2] = tested on: normal, T1DM and T2DM mice; experiment: Insulin tolerance test (ITT): activity of lowering plasma glucose (AL); type: in vivo, ICR mice; conditions: 30 min after insulin
Method: (§1) T1DM mice were induced by a known method. In brief, an intraperitoneal injection of streptozotocin (STZ; Sigma Chemical Co.; St. Louis, Mo.) at 150 mg/kg was performed in mice that were fasted for 48 h. The induction of T1DM was assessed and confirmed when the mice had plasma glucose levels ≧350 mg/dL, accompanied with polyuria, hyperphagia and decreased body weight. The control mice group received an injection of vehicle and then carried out for 4 weeks. T2DM mice were induced by maintaining on a fat-rich chow diet and fructose-sweetened water for 4 weeks from the age of 4-5 weeks according to previous methods. The induction T2DM mice were assessed by measuring fasting plasma glucose levels and confirmed when plasma glucose level was ≧150 mg/dL after a 4-week induction.
Blood samples were collected from the orbital vascular plexus of mice under anesthesia with sodium pentobarbital (80 mg/kg, intraperitoneal, Sigma Chemical Co., St. Louis, Mo., USA). Blood samples were then centrifuged at 13000 rpm for 5 min, and the plasma was kept on ice prior to the assay. The plasma glucose concentration was measured using commercial kits following manufacturer's instructions (BioSystems S. A., Barcelona, Spain).
To perform OGTT, mice were fasted overnight, divided into 2 groups and then administered a vehicle control and 5 mg/kg borapetoside C. This was followed by administration of a glucose solution at 2 g/kg via tube feeding. Blood samples were withdrawn from the orbital vascular plexus at intervals of 30, 60, 120, and 150 min after glucose administration. For the ITT, mice were fasted for 3 h. Human insulin (Insulin Actrapid) HM; Novo Nordisk, Denmark) was injected intraperitoneally after an intraperitoneal administration of 0.1 mg/kg borapetoside C for 30 min. Blood samples were collected from the orbital vascular plexus at the timed intervals mentioned above.
Therefore, the effects of borapetoside C on insulin tolerance were tested in this study. The non-diabetic, T1DM, and T2DM mice were injected with insulin at various doses (i.e., 0.1 IU/kg, 0.5 IU/kg, and 1.0 IU/kg) in conjunction with either borapetoside C (0.1 mg/kg) or a vehicle control (Table 3), and their plasma glucose levels were examined before and 30 min after insulin injection. The activity of lowering plasma glucose levels (AL) was calculated by the formula: (Gi−Gt)/Gi×100%, where the Gi was the initial glucose concentration and G1 was the plasma glucose concentration after 30-min treatment with insulin. Insulin reduced the plasma glucose levels in both normal and diabetic mice, and the glucose levels were further decreased when insulin was co-administered with borapetoside C to the mice.

[3] = tested on: soleus muscle of normal, T1DM and T2DM mice; experiment: Glycogen content of skeletal muscle (borapetoside C or insulin); type: in vivo, ICR mice; conditions: borapetoside C 5 mg/kg i.p., insulin (Actrapid) 0.5 IU/kg i.p.
Method: This study was conducted following the University ethical guidelines on animal experimentation and complied with the Guide for the Care and Use of Laboratory Animals published by the US National Institutes of Health (NIH publication no. 85-23, revised 1996). The animal facility was well controlled for temperature (22±1° C.), and humidity (60±5%) and a 12 h/12 h light-dark cycle was maintained with access to food and water ad libitum. Four-week-old male ICR mice were acquired from BioLasco Taiwan Co., Ltd. and maintained at College of Medicine Experimental Animal Center, National Taiwan University. The study was conducted on 8-10 week-old male ICR mice.
as §1
Glycogen content of skeletal muscles was measured by a known method. In brief, mice were injected with borapetoside C (5.0 mg/kg, interperitoneal) for 60 min or insulin (0.5 IU/kg, interperitoneal.) for 30 min, and the soleus muscle was isolated from anesthetized mice. About 40 mg of muscle sample was dissolved in 1 N KOH at 75° C. for 30 min. The dissolved homogenate was neutralized by glacial acetic acid and then incubated overnight in acetate buffer (0.3 M sodium acetate, pH 4.8) containing amyloglucosidase (Sigma, St. Louis, Mo.). The mixture was then neutralized with 1 N NaOH to stop the reaction. The glycogen contents in the tissue samples were determined as μg of glucose per mg of tissue (wet weight).

[4] = Normal mice, insulin 0.1 IU/kg with borapetoside C 0.1 mg/kg or vehicle
[5] = Normal mice, insulin 0.5 IU/kg with borapetoside C 0.1 mg/kg or vehicle
[6] = Normal mice, insulin 1.0 IU/kg with borapetoside C 0.1 mg/kg or vehicle
[7] = T1DM mice, insulin 0.1 IU/kg with borapetoside C 0.1 mg/kg or vehicle
[8] = T1DM mice, insulin 0.5 IU/kg with borapetoside C 0.1 mg/kg or vehicle
[9] = T1DM mice, insulin 1.0 IU/kg with borapetoside C 0.1 mg/kg or vehicle
[10] = T2DM mice, insulin 0.1 IU/kg with borapetoside C 0.1 mg/kg or vehicle
[11] = T2DM mice, insulin 0.5 IU/kg with borapetoside C 0.1 mg/kg or vehicle
[12] = T2DM mice, insulin 1.0 IU/kg with borapetoside C 0.1 mg/kg or vehicle

`C[C@@]12C[C@@H](c3ccoc3)OC(=O)[C@@H]1C[C@@H]1OC(=O)[C@@]3(O)[C@@H](O[C@@H]4O[C@H](CO)[C@@H](O)[C@H](O)[C@H]4O)CC[C@@H]2[C@@]13C` [Borapetoside A, borapetoside A] was tested, and the “fold increase of glycogen content” value ([1]; 10^−6 mol/L) was 1.64±0.05 fold, the “fold increase of glycogen content” value ([1]; 10^−7 mol/L) was 1.38±0.06 fold and the “fold increase of glycogen content” value ([1]; 10^−8 mol/L) was 1.35±0.08 fold.
With `COC(=O)C1=CCC[C@H]2[C@]3(C)C[C@@H](c4ccoc4)OC(=O)[C@@H]3C[C@@H](O[C@@H]3O[C@H](CO)[C@@H](O)[C@H](O)[C@H]3O)[C@@]12C` [Borapetoside C, borapetoside C] the “AL (activity of lowering plasma glucose levels)” value [2, 4] was 17.2 ± 1.2%, the “AL (activity of lowering plasma glucose levels)” value [2, 5] was 45.7 ± 3.7% and the “AL (activity of lowering plasma glucose levels)” value [2, 6] was 64.7 ± 1.8 %. For the same compound, the “AL (activity of lowering plasma glucose levels)” value [2, 7] was 10.5 ± 1.4%, the “AL (activity of lowering plasma glucose levels)” value [2, 8] was 18.9 ± 2.1% and the “AL (activity of lowering plasma glucose levels)” value [2, 9] was 32.2 ± 2.1 %. The “AL (activity of lowering plasma glucose levels)” value [2, 10] was 24.0 ± 1.1%, the “AL (activity of lowering plasma glucose levels)” value [2, 11] was 31.6 ± 1.6% and the “AL (activity of lowering plasma glucose levels)” value [2, 12] was 42.5 ± 0.8 %. The “Glycogen synthesis in skeletal muscle (glycogen content)” value (shortened to “Glycogen synthesis in skeletal muscle”) ([3]; Normal mice) was 25.1 ± 1.3 μg of glucose per mg of tissue (wet weight), the “Glycogen synthesis in skeletal muscle” value ([3]; T1DM mice) was 23.2 ± 0.7 μg of glucose per mg of tissue (wet weight) and the “Glycogen synthesis in skeletal muscle” value ([3]; T2DM mice) was 23.3 ± 0.4 μg of glucose per mg of tissue (wet weight).
With “Insulin: human insulin, Insulin Actrapid HM, a short-acting insulin provided by Novo Nordisk [reference compound]” the “AL (activity of lowering plasma glucose levels)” value [2, 4] was 14.6 ± 0.8%, the “AL (activity of lowering plasma glucose levels)” value [2, 5] was 37.5 ± 1.1% and the “AL (activity of lowering plasma glucose levels)” value [2, 6] was 56.8 ± 1.9%. For the same compound, the “AL (activity of lowering plasma glucose levels)” value [2, 7] was 8.7 ± 1.6%, the “AL (activity of lowering plasma glucose levels)” value [2, 8] was 11.5 ± 0.6% and the “AL (activity of lowering plasma glucose levels)” value [2, 9] was 24.0 ± 1.3%. The “AL (activity of lowering plasma glucose levels)” value [2, 10] was 19.5 ± 1.5%, the “AL (activity of lowering plasma glucose levels)” value [2, 11] was 27.5 ± 2.6% and the “AL (activity of lowering plasma glucose levels)” value [2, 12] was 32.0 ± 1.1%. The “Glycogen synthesis in skeletal muscle” value ([3]; Normal mice) was 30.2 ± 2.0 μg of glucose per mg of tissue (wet weight), the “Glycogen synthesis in skeletal muscle” value ([3]; T1DM mice) was 30.0 ± 1.0 μg of glucose per mg of tissue (wet weight) and the “Glycogen synthesis in skeletal muscle” value ([3]; T2DM mice) was 20.2 ± 0.6 μg of glucose per mg of tissue (wet weight). For the same compound, the glycogen content ([1]; IL-6-induced insulin resistant model, 1 nM insulin) was “not increased”.
